The values that follow come from article PMC8196580, “Identification of Kaurane-Type Diterpenes as Inhibitors of Leishmania Pteridine Reductase I” (Molecules, 2021).

Like-named read-outs stand apart in the source and are kept apart here.

In assay [1] the test system is L. major. The experiment in a line: ChEMBL dataset of pIC50 values against L. major used for the RF model (Table S1). In kind it is cell-based, Leishmania major.
For assay [2], the system named is L. major. On the set-up: method as in ChEMBL. Particulars: ref ChEMBL, cited from earlier work; call rule not given here.
Setting [3] is: Active/Inactive class assigned to the ChEMBL pIC50 value for Random forest model construction, ref ChEMBL.
[4] abbreviates: ChemBL structures with pIC50 values used for Random forest model construction, L. major.
The mark [5] stands for this setting: Active/Inactive class assigned to ChemBL structures for Random forest model construction (Table S1).
Where [6] appears, read: ChemBL structures with pIC50 values used for Random forest model construction (Table S1).

In the case of `COc1cc(OC)c2c(C)[n+](-c3cccc(C)c3C)c(C)cc2c1.F[B-](F)(F)F` [CHEMBL480823], the Outcome entry in the assay with L. major [1] (setting [3]) is recorded as “Inactive”. In the assay on L. major [2] (setting [4]), the “pIC50 Value” is on record as 4.94.
Take `COc1cc(OC)c2c(C)[n+](-c3c(C)cc(C)cc3C)c(C)cc2c1.F[B-](F)(F)F` [CHEMBL480824]: the Outcome entry with L. major [1] (setting [5]) is reported as “Active”. Moreover, the “pIC50 Value” in the assay on L. major [2] (setting [6]) is reported as 5.83.
With `COc1cc(OC)c2c(C)[n+](-c3ccc(C(C)C)cc3)c(C)cc2c1` [CHEMBL481022], the Outcome result with L. major [1] (setting [5]) was “Active”. Besides, the “pIC50 Value” with L. major [2] (setting [6]) was 5.70.
On to `CCCCc1ccc(-[n+]2c(C)cc3cc(OC)cc(OC)c3c2C)cc1.F[B-](F)(F)F` [CHEMBL481023], for which the Outcome entry with L. major [1] (setting [5]) is “Active”. Also, the “pIC50 Value” with L. major [2] (setting [6]) is listed as 5.57.
`COc1ccc(-[n+]2c(C)cc3cc(OC)cc(OC)c3c2C)cc1.F[B-](F)(F)F` [CHEMBL481565]: in the assay with L. major [1] (setting [3]), the Outcome result is “Inactive”. For the same compound, in the assay with L. major [2] (setting [4]), the “pIC50 Value” is 4.00.
Take `COc1cc(OC)c2c(C)[n+](-c3ccc(Cl)cc3)c(C)cc2c1.F[B-](F)(F)F` [CHEMBL481566]: in the assay on L. major [1] (setting [3]), the Outcome result is reported as “Inactive”. For the same compound, the “pIC50 Value” in the assay on L. major [2] (setting [4]) was 4.72.
With `COc1cc2c(c(OC)c1)C(C)N(c1ccc(C(C)C)cc1)C(C)C2` (stereo not shown) [CHEMBL481808], in the assay on L. major [1] (setting [3]), the Outcome entry was “Inactive”. In addition, in the assay on L. major [2] (setting [4]), the “pIC50 Value” is 4.30.
Consider `COc1cc(OC)c2c(C)[n+](-c3ccc(C#N)cc3)c(C)cc2c1.O=C([O-])C(F)(F)F` [CHEMBL481906], for which the Outcome result in the assay on L. major [1] (setting [3]) is recorded as “Inactive”. Also, the “pIC50 Value” in the assay on L. major [2] (setting [4]) is on record as 4.00.
Turning to `COc1cc(OC)c2c(C)[n+](-c3ccc4ncccc4c3)c(C)cc2c1.O=C([O-])C(F)(F)F` [CHEMBL481907], the Outcome entry in the assay with L. major [1] (setting [3]) is on record as “Inactive”. Also, the “pIC50 Value” in the assay on L. major [2] (setting [4]) is given as 4.00.
Turning to `COc1cc(OC)c2c(C)[n+](-c3ccc4cc5ccccc5cc4c3)c(C)cc2c1.F[B-](F)(F)F` [CHEMBL482393], the Outcome entry in the assay on L. major [1] (setting [5]) is recorded as “Active”. Further, in the assay on L. major [2] (setting [6]), the “pIC50 Value” is reported as 6.17.
As to `COc1cc(OC)c2c(C)[n+](-c3cccc4cc5ccccc5cc34)c(C)cc2c1.F[B-](F)(F)F` [CHEMBL482394], in the assay on L. major [1] (setting [5]), the Outcome entry is “Active”. In the assay on L. major [2] (setting [6]), the “pIC50 Value” is reported as 6.14.
`COc1cc(OC)c2c(C)[n+](-c3ccc(C)cc3C)c(C)cc2c1.F[B-](F)(F)F` [CHEMBL482395]: the Outcome result in the assay on L. major [1] (setting [5]) is “Active”. In addition, the “pIC50 Value” in the assay on L. major [2] (setting [6]) is listed as 5.48.
Regarding `Cn1c([N+](=O)[O-])cnc1-c1nnc(N2CCN(C(=O)c3ccccc3)CC2)s1` [CHEMBL482463], the Outcome entry with L. major [1] (setting [3]) is listed as “Inactive”. In addition, in the assay with L. major [2] (setting [4]), the “pIC50 Value” is reported as 4.98.
With `Cn1c([N+](=O)[O-])cnc1-c1nnc(N2CCN(C(=O)c3ccccc3Cl)CC2)s1` [CHEMBL482464], the Outcome entry with L. major [1] (setting [3]) is listed as “Inactive”. In the assay on L. major [2] (setting [4]), the “pIC50 Value” was 4.69.
In the case of `Cn1c([N+](=O)[O-])cnc1-c1nnc(N2CCN(C(=O)c3cccc(Cl)c3)CC2)s1` [CHEMBL482665], the Outcome entry with L. major [1] (setting [3]) is “Inactive”. Also, the “pIC50 Value” in the assay with L. major [2] (setting [4]) is recorded as 4.75.
`Cn1c([N+](=O)[O-])cnc1-c1nnc(N2CCN(C(=O)c3cccs3)CC2)s1` [CHEMBL482666]: the Outcome result with L. major [1] (setting [3]) is “Inactive”. Moreover, the “pIC50 Value” in the assay with L. major [2] (setting [4]) is on record as 4.59.
As for `C[C@H]1COC2=C1C(=O)C(=O)c1c2ccc2c1[C@H](O)CCC2(C)C` [CHEMBL485279], the Outcome entry with L. major [1] (setting [3]) is given as “Inactive”. Besides, the “pIC50 Value” in the assay with L. major [2] (setting [4]) is on record as 4.33.
With `CC(C)C1=Cc2ccc3c(c2C(=O)C1=O)C(=O)CCC3(C)C` [CHEMBL485479], in the assay on L. major [1] (setting [3]), the Outcome entry was “Inactive”. The “pIC50 Value” in the assay with L. major [2] (setting [4]) is 4.75.
Regarding `C[C@H](O)C#CC#CC#CC#CCCCCCCCC(=O)O` [CHEMBL487989], the Outcome entry in the assay with L. major [1] (setting [5]) is on record as “Active”. Besides, in the assay on L. major [2] (setting [6]), the “pIC50 Value” is recorded as 5.31.
In the case of `Cc1ncc(-c2ccnc(Nc3ccc(S(C)(=O)=O)cc3)n2)n1C(C)C` [CHEMBL488436], the Outcome result with L. major [1] (setting [5]) is “Active”. In the assay on L. major [2] (setting [6]), the “pIC50 Value” is 5.50.
For `C/C=C/c1cc(O)c(OC)c(OC)c1` [CHEMBL489518], the Outcome result in the assay on L. major [1] (setting [3]) is “Inactive”. The “pIC50 Value” in the assay on L. major [2] (setting [4]) is given as 3.43.
Consider `C=CCCC/C=C\C/C=C\CCCCCCCc1cc(O)cc(O)c1` [CHEMBL496449], for which the Outcome entry in the assay on L. major [1] (setting [3]) was “Inactive”. Besides, the “pIC50 Value” in the assay with L. major [2] (setting [4]) is 4.98.
On to `CC(C)=CC(=O)N[C@H]1CC[C@@]2(C)[C@@H](CC[C@@H]3[C@@H]2CC[C@]2(C)C([C@H](C)N(C)C)=CC[C@@H]32)[C@H]1O` [CHEMBL496487], for which the Outcome entry in the assay with L. major [1] (setting [3]) is “Inactive”. In addition, the “pIC50 Value” in the assay on L. major [2] (setting [4]) was 4.95.
With `C[C@@H]([C@H]1CC=C2[C@@H]3CCC4=C[C@@H](N(C)C)CC[C@]4(C)[C@H]3CC[C@@]21C)N(C)C` [CHEMBL496488], the Outcome result in the assay on L. major [1] (setting [3]) is recorded as “Active”. In addition, the “pIC50 Value” in the assay with L. major [2] (setting [4]) is recorded as 5.17.
With `C[C@@H]([C@H]1CC[C@H]2[C@@H]3CC[C@H]4C(=O)C(NC=O)=CC[C@]4(C)[C@H]3CC[C@]12C)N(C)C` [CHEMBL496489], in the assay with L. major [1] (setting [3]), the Outcome result is “Inactive”. Moreover, the “pIC50 Value” in the assay with L. major [2] (setting [4]) is 4.65.
Take `COc1ccc([C@@H]2COc3c(ccc4occc34)C2)c(OC)c1O` [CHEMBL498724]: the Outcome result with L. major [1] (setting [3]) is “Inactive”. The “pIC50 Value” in the assay with L. major [2] (setting [4]) is given as 4.76.
Turning to `COc1ccc([C@@H]2COc3c(ccc4c3C=CC(C)(C)O4)C2)c(OC)c1O` [CHEMBL498725], the Outcome result in the assay with L. major [1] (setting [3]) is “Inactive”. Also, the “pIC50 Value” in the assay on L. major [2] (setting [4]) is 4.63.
Turning to `CC(C)(O)[C@@H]1CC[C@](C)([C@H]2[C@@H](O)C[C@@]3(C)[C@@H]4C[C@H](O)[C@H]5C(C)(C)[C@@H](O[C@@H]6OC[C@@H](O)[C@H](O)[C@H]6O)CC[C@@]56C[C@@]46CC[C@]23C)O1` [CHEMBL500607], the Outcome entry in the assay with L. major [1] (setting [3]) was “Inactive”. The “pIC50 Value” with L. major [2] (setting [4]) was 4.25.
Take `C[C@@H]1C[C@@]2(O[C@H]3C[C@@]4(C)[C@@H]5C[C@H](O)[C@H]6C(C)(C)[C@@H](O[C@@H]7OC[C@@H](O)[C@@H](O)[C@H]7O)CC[C@@]67C[C@@]57CC[C@]4(C)[C@@H]13)O[C@H](O)[C@]1(C)C[C@H]21` [CHEMBL501026]: the Outcome result in the assay on L. major [1] (setting [3]) was “Inactive”. Besides, the “pIC50 Value” in the assay on L. major [2] (setting [4]) is recorded as 4.19.
For the compound `C/C=C/c1cc(OC)c(OC)c(O)c1OC` [CHEMBL501754], the Outcome entry in the assay with L. major [1] (setting [3]) is on record as “Inactive”. Further, the “pIC50 Value” in the assay on L. major [2] (setting [4]) is recorded as 3.41.
For `COc1ccc([C@@H]2COc3c(ccc(O)c3CC=C(C)C)C2)c(OC)c1O` [CHEMBL501755], the Outcome entry with L. major [1] (setting [3]) was “Active”. Further, the “pIC50 Value” in the assay on L. major [2] (setting [4]) is given as 5.10.
Regarding `CN[C@@H](C)[C@H]1CC[C@H]2[C@@H]3CC[C@H]4C[C@@H](N(C)C(=O)c5ccccc5)CC[C@]4(C)[C@H]3CC[C@]12C` [CHEMBL503323], the Outcome result with L. major [1] (setting [3]) is “Active”. The “pIC50 Value” with L. major [2] (setting [4]) is 5.06.
Turning to `CC(C)(O)[C@@H]1CC[C@](C)([C@@H]2[C@@H](O)C[C@@]3(C)[C@@H]4C[C@H](O)[C@H]5C(C)(C)[C@@H](O)CC[C@@]56C[C@@]46CC[C@]23C)O1` [CHEMBL504655], the Outcome entry in the assay with L. major [1] (setting [3]) was “Inactive”. Besides, the “pIC50 Value” in the assay with L. major [2] (setting [4]) is 3.97.
On to `CN[C@@H](C)[C@H]1CC[C@H]2[C@@H]3CC[C@H]4[C@@H](OC(C)=O)[C@@H](NC(=O)C=C(C)C)CC[C@]4(C)[C@H]3CC[C@]12C` [CHEMBL504923], for which, in the assay on L. major [1] (setting [5]), the Outcome entry is reported as “Active”. For the same compound, the “pIC50 Value” in the assay on L. major [2] (setting [6]) is 5.48.
Consider `C/C=C(\C)C(=O)N[C@H]1CC[C@]2(C)[C@H]3CC[C@]4(C)[C@@H]([C@H](C)NC)CC[C@H]4[C@@H]3CC[C@H]2[C@H]1OC(C)=O` [CHEMBL504924], for which, in the assay with L. major [1] (setting [5]), the Outcome result was “Active”. Besides, the “pIC50 Value” in the assay with L. major [2] (setting [6]) is reported as 5.82.
